Where a name gives a salt, the structure may show the parent alone.
Assays:
[1] = target: human lung tryptase; assay: β-Tryptase In-Vitro Enzyme Assay; format: biochemical; conditions: human lung tryptase 1 nM, substrate H-D-HHT-Ala-Arg-pNa 500 μM, pH 7.4, room temperature
Procedure: The β-tryptase assay was conducted with human lung tryptase (Cortex Biochem #CP3033) in an aqueous buffer (10 mM Tris, 10 mM Hepes, 150 mM NaCl, 0.1% PEG 8000, pH 7.4) using the chromogenic substrate H-D-HHT-Ala-Arg-pNa. […] Percent inhibition was calculated by comparing the initial reaction velocity of samples without inhibitor to those with inhibitor. The initial reaction velocities were analyzed using Microsoft Excel.

[2] = system: guinea pig model of allergic asthma; assay: Guinea Pig Efficacy Model (OVA allergic asthma); format: in vivo
Procedure: The in vivo efficacy of Compound 3 was evaluated in a guinea pig model of allergic asthma. In this model, guinea pigs were sensitized and challenged with chicken egg ovalbumin (OVA) according to the protocol of N. Smith and F. J. Johnson (Clin. Exp. Allergy 2005, 35, 522-530), with some slight modifications. Guinea pigs were sensitized with 80 mg of OVA and 80 mg of aluminum hydroxide administered intraperitoneally on day 0, then challenged with 0.03% OVA aerosol for 10 minutes on day 14. In the experiment measuring early phase pulmonary response (EAR), guinea pigs were challenged for an additional three minutes with 0.06% OVA aerosol. EAR was measured as enhanced pause (PenH) using BUXCO whole body plethysmography for 10 minutes immediately following the OVA aerosol challenge. The animals were then euthanized and assessed for bronchoalveolar lavage (BAL) immune cell counts 24 hours after aerosol challenge on day 15. Either Compound 3 in doses of 3, 10, and/or 30 mg/kg or vehicle were administered subcutaneously, 1-2 hours before and 4-6 hours after OVA aerosol challenge.

[3] = system: antigen-induced allergic sheep; assay: Sheep Efficacy Model (antigen-induced allergic sheep asthma model); format: in vivo; conditions: 30 mg/kg BID oral gavage, two sheep
Procedure: The in vivo efficacy of Compound 3 was evaluated in antigen-induced allergic sheep, which is a well-characterized asthma model (Abraham, W. M. Pulmonary Pharmacol. 1989, 2, 33-40). Compound 3 was administered via oral gavage to two sheep previously shown to be allergic responders to inhaled Ascaris suum antigen (FIG. 1). The compound was given at a dose of 30 mg/kg, BID, on day 1, and again on day 2 at 2 h prior to antigen challenge and then 4 h after antigen challenge. Airway resistance (SRL) was monitored for 8 h post antigen challenge and airway hyper-reactivity to carbachol (PC400) was measured 24 h post antigen challenge.

[4] = system: mild asthmatics; conditions: nebulized dry powder, 16 mild asthmatics, compared with placebo, cited from earlier work
[5] = 3, 10 and 30 mg/kg subcutaneously, 24 hours after OVA aerosol challenge

Row | Structure (SMILES) | IC50 [1] [nM] | further results
1 | NCc1ccc2c(c1)C1(CCN(C(=O)c3ccc(C#Cc4ccccc4)o3)CC1)CO2 [Cpd 3, 1-(5-phenylethynyl-furan-2-yl)carbonyl-5′-aminomethyl-spiro[piperidine-4,3′-(2H)-benzo[b]furan]] | 3.5 | reduction in BAL eosinophils ([2]; 30 mg/kg subcutaneously, 24 hours after OVA aerosol challenge): 66%; reduction in EAR as measured with whole body plethysmography (in PenH) ([2]; 30 mg/kg subcutaneously, relative to sensitized and challenged guinea pigs treated with vehicle): greater than 93%; eosinophilic BAL cell counts [2, 5]: dose-dependent reduction; total BAL cell counts [2, 5]: dose-dependent reduction; acute early phase response (EP; 0-4 h) post antigen, specific airway resistance (SRL) [3]: did not effect a change; increase in airway hyper-reactivity to carbachol (PC400) at 24 h ([3]; 24 h post antigen challenge): completely blocked; late response (LP; 4-8 h post antigen), specific airway resistance (SRL) ([3]; inhaled Ascaris suum antigen challenge): completely blocked
2 | NCc1ccc2c(c1)C1(CCN(C(=O)c3ccc(C#Cc4ccccc4)o3)CC1)CO2 (as salt: salt) [Cpd 3, 1-(5-phenylethynyl-furan-2-yl)carbonyl-5′-aminomethyl-spiro[piperidine-4,3′-(2H)-benzo[b]furan]] | – | melting point: 179 to 181 °C
3 | NC(=O)[C@@H]1CCCN1C(=O)[C@H](CCCN=C(N)N)NC(=O)c1ccc2ccccc2c1O [APC-366] | – | mean maximum decrease of forced expiratory volume in one second for late airway hyperresponsiveness ([4]; ρ=0.007): 21%; improvement for the late airway response ([4]; ρ=0.012): 33%
4 | NCc1ccc2c(c1)C1(CCN(C(=O)c3cccc(NS(=O)(=O)c4ccccc4)c3)CC1)CO2 [Cpd 18, 1-(3-phenylsulfonylamino-phenyl)carbonyl-5′-aminomethyl-spiro[piperidine-4,3′-(2H)-benzo[b]furan]] | 3300 | –
5 | NCc1ccc2c(c1)C1(CCN(C(=O)c3cccc(C(F)(F)F)c3)CC1)CO2 [Cpd 47, 1-(3-trifluoromethyl-phenyl)carbonyl-5′-aminomethyl-spiro[piperidine-4,3′-(2H)-benzo[b]furan]] | 820 | –
6 | NCc1ccc2c(c1)C1(CCN(C(=O)c3ccc(-c4ccccn4)s3)CC1)CO2 [Cpd 120, 1-(5-pyridin-2-yl-thien-2-yl)carbonyl-5′-aminomethyl-spiro[piperidine-4,3′-(2H)-benzo[b]furan]] | 130 | –
7 | Cc1ccc2nc(C(=O)N3CCC4(CC3)COc3ccc(CN)cc34)cn2c1 [Cpd 119, 1-(6-methyl-imidazo[1,2-a]pyridin-2-yl)carbonyl-5′-aminomethyl-spiro[piperidine-4,3′-(2H)-benzo[b]furan]] | 1400 | –
8 | NCc1ccc2c(c1)C1(CCN(C(=O)c3ccc(F)c(F)c3)CC1)CO2 [Cpd 26, 1-(3,4-difluoro-phenyl)carbonyl-5′-aminomethyl-spiro[piperidine-4,3′-(2H)-benzo[b]furan]] | 230 | –

Continued, in another order:

Row | IC50 [1] [nM] | Structure (SMILES) | further results
9 | 910 | NCc1ccc2c(c1)C1(CCN(C(=O)c3cc4ccccc4n3S(=O)(=O)c3ccccc3)CC1)CO2 [Cpd 283, 1-(1-phenylsulfonyl-1H-indol-2-yl)carbonyl-5′-aminomethyl-spiro[piperidine-4,3′-(2H)-benzo[b]furan]] | –
10 | 36 | NCc1ccc2c(c1)C1(CCN(C(=O)c3ccc(C#Cc4ccccc4)o3)CC1)CN2S(=O)(=O)c1ccc(C(=O)O)o1 [Cpd 337, 1-(5-phenylethynyl-furan-2-yl)carbonyl-1′-(5-carboxy-furan-2-yl)sulfonyl-5′-aminomethyl-spiro[piperidine-4,3′-(2H)-indole]] | –
11 | 54 | NCc1ccc2c(c1)C1(CCN(C(=O)c3cc4c(s3)CCCC4)CC1)CO2 [Cpd 163, 1-(5,6,7-trihydro-4H-benzo[b]thien-2-yl)carbonyl-5′-aminomethyl-spiro[piperidine-4,3′-(2H)-benzo[b]furan]] | –
12 | 28 | NCc1ccc2c(c1)C1(CCN(C(=O)c3ccc(-c4ccccc4)o3)CC1)CO2 [Cpd 130, 1-(5-phenyl-furan-2-yl)carbonyl-5′-aminomethyl-spiro[piperidine-4,3′-(2H)-benzo[b]furan]] | –
13 | 210 | NCc1ccc2c(c1)C1(CCN(C(=O)c3cccs3)CC1)CO2 [Cpd 159, 1-thien-2-ylcarbonyl-5′-aminomethyl-spiro[piperidine-4,3′-(2H)-benzo[b]furan]] | –
14 | 58 | NCc1ccc2c(c1)C1(CCN(C(=O)c3sc4cccc(Cl)c4c3Cl)CC1)CO2 [Cpd 175, 1-(3,4-dichloro-benzo[b]thien-2-yl)carbonyl-5′-aminomethyl-spiro[piperidine-4,3′-(2H)-benzo[b]furan]] | –
15 | 180 | Cc1ccsc1/C=C/C(=O)N1CCC2(CC1)COc1ccc(CN)cc12 [Cpd 356, (E)-1-(3-methyl-thien-2-ylethenyl)carbonyl-5′-aminomethyl-spiro[piperidine-4,3′-(2H)-benzo[b]furan]] | –
16 | 920 | NCc1ccc2c(c1)C1(CCN(C(=O)C3=CCc4ccccc43)CC1)CO2 [Cpd 286, 1-3H-inden-1-ylcarbonyl-5′-aminomethyl-spiro[piperidine-4,3′-(2H)-benzo[b]furan]] | –
17 | 750 | NCc1ccc2c(c1)C1(CCN(C(=O)c3c[nH]c4ccccc34)CC1)CO2 [Cpd 236, 1-indol-3-ylcarbonyl-5′-aminomethyl-spiro[piperidine-4,3′-(2H)-benzo[b]furan]] | –

Reference: patent US8158792B2, “Spiropiperidines for use as tryptase inhibitors” (Janssen Pharmaceutica N.V., priority 2007, dated 2012)
